The test system of this experiment is LMP1 expression in Kem I cells. Nature of the experiment: microbe, parasite or virus in culture. The note with it: for fold induction at 2.5 µM: human gammaherpesvirus 4, 48 h. Type of experiment: cell-based, EBV.
Where [1] appears, read: read-out: Average LMP1 Fold Increase, Kem I cells, 2.5 uM, 48 hours, average of replicates 1 and 2.
[2] abbreviates: read-out: Replicate 1-LMP1 Fold Increase, Kem I cells, 2.5 uM, 48 hours, fold change in LMP1 transcript vs vehicle.
[3] abbreviates: read-out: Replicate 2-LMP1 Fold Increase, Kem I cells, 2.5 uM, 48 hours, fold change in LMP1 transcript vs vehicle.
Where [4] appears, read: Kem I cells, 2.5 uM, 48 hours, average of replicates 1 and 2.
Where [5] appears, read: Kem I cells, 2.5 uM, 48 hours, fold change in LMP1 transcript vs vehicle.

Counter-ions that a name gives are not always drawn. Like-named read-outs stand apart in the source and are kept apart here.

As to `COc1ccc2c(c1)C(=O)N(CCc1ccc(S(=O)(=O)NC(=O)NC3CCCCC3)cc1)C(=O)C2(C)C` [Gliquidone], the fold induction at 2.5 µM runs as follows: under setting [1], 0.77; under setting [2], 0.81; under setting [3], 0.73.

Take `COc1ccc2c(c1)c(C1=C(c3c[nH]c4ccccc34)C(=O)NC1=O)cn2CCCN(C)C` [Go 6983]: under setting [4], the “Average LMP1 Fold Increase” value is given as 0.34. Also, under setting [5], the “Replicate 1-LMP1 Fold Increase” value was 0.22 and the “Replicate 2-LMP1 Fold Increase” value stood at 0.45.

For `CN1C2CCCC1CC(NC(=O)c1nn(C)c3ccccc13)C2` (stereo not shown) [Granisetron HCl], the fold induction at 2.5 µM under setting [1] is 0.25, the fold induction at 2.5 µM under setting [2] was 0.25 and the fold induction at 2.5 µM under setting [3] stood at 0.24.

Turning to `Cl.Cl.O=S(=O)(NCCNC/C=C/c1ccc(Br)cc1)c1cccc2cnccc12` [H 89 2HCl], under setting [4], the “Average LMP1 Fold Increase” value worked out at 0.68. Besides, under setting [5], the “Replicate 1-LMP1 Fold Increase” value came to 0.54 and the “Replicate 2-LMP1 Fold Increase” value came to 0.82.

Consider `CC(C)c1ccc(NC(=O)Cn2cnc3c2c(=O)n(C)c(=O)n3C)cc1` [HC-030031], for which the “Average LMP1 Fold Increase” value under setting [4] was 0.28. Moreover, under setting [5], the “Replicate 1-LMP1 Fold Increase” value turned out to be 0.32 and the “Replicate 2-LMP1 Fold Increase” value stood at 0.24.

Consider `O=C1[C@H](Cc2ccc(O)cc2)N2C(=O)CCN(C(=O)NCc3ccccc3)[C@H]2CN1Cc1cccc2ccccc12` [ICG-001], for which the “Average LMP1 Fold Increase” value under setting [4] turned out to be 1.04. In addition, under setting [5], the “Replicate 1-LMP1 Fold Increase” value worked out at 1.17 and the “Replicate 2-LMP1 Fold Increase” value was 0.92.

`O=C(c1ccc(Nc2nccc(-c3cc4ccccc4s3)n2)cc1)N1CCC(N2CCCC2)CC1` [IKK-16 (IKK Inhibitor VII)]: the “Average LMP1 Fold Increase” value under setting [4] was determined as 0.30. Under setting [5], the “Replicate 1-LMP1 Fold Increase” value was 0.26 and the “Replicate 2-LMP1 Fold Increase” value is listed as 0.35.

Take `O=C(Nc1cc(C(F)(F)F)cc(C(F)(F)F)c1)c1cc(Cl)ccc1O` [IMD 0354]: the fold induction at 2.5 µM is 0.62 under setting [1], 0.74 under setting [2] and 0.5 under setting [3].

As for `O=C(O)CNC(=O)c1c(O)c2ccccc2n(Cc2ccccc2)c1=O` [IOX2], under setting [4], the “Average LMP1 Fold Increase” value is reported as 0.39. Further, under setting [5], the “Replicate 1-LMP1 Fold Increase” value amounted to 0.40 and the “Replicate 2-LMP1 Fold Increase” value came to 0.38.

As for `Oc1ccc2ccccc2c1SSc1c(O)ccc2ccccc12` [IPA-3], the “Average LMP1 Fold Increase” value under setting [4] is recorded as 0.27. Under setting [5], the “Replicate 1-LMP1 Fold Increase” value turned out to be 0.21 and the “Replicate 2-LMP1 Fold Increase” value is on record as 0.33.

For `C=CC(=O)N1CCC[C@@H](n2nc(-c3ccc(Oc4ccccc4)cc3)c3c(N)ncnc32)C1` [Ibrutinib (PCl-32765)], the “Average LMP1 Fold Increase” value was found to be 0.15, the “Replicate 1-LMP1 Fold Increase” value is 0.09 and the “Replicate 2-LMP1 Fold Increase” value worked out at 0.22.

For the compound `C#Cc1cccc(Nc2ncnc3cc4c(cc23)OCCOCCOCCO4)c1` [Icotinib], the fold induction at 2.5 µM was found to be 8.04 under setting [1], 15.7 under setting [2] and 0.34 under setting [3].

In the case of `CNC(=O)[C@H](Cc1c[nH]c2ccccc12)NC(=O)[C@@H](CC(=O)NO)CC(C)C` [Ilomastat (GM6001, Galardin)], under setting [4], the “Average LMP1 Fold Increase” value stood at 0.08. For the same compound, under setting [5], the “Replicate 1-LMP1 Fold Increase” value turned out to be 0.05 and the “Replicate 2-LMP1 Fold Increase” value stood at 0.12.

Regarding `Cc1ccc(NC(=O)c2ccc(CN3CCN(C)CC3)cc2)cc1Nc1nccc(-c2cccnc2)n1` [Imatinib (STI571)], the “Average LMP1 Fold Increase” value under setting [4] came out at 0.42. Also, under setting [5], the “Replicate 1-LMP1 Fold Increase” value was found to be 0.60 and the “Replicate 2-LMP1 Fold Increase” value turned out to be 0.25.

With `CCOC(=O)[C@H](CCc1ccccc1)N[C@@H](C)C(=O)N1C(=O)N(C)C[C@H]1C(=O)O` [Imidapril HCl], the fold induction at 2.5 µM was 0.66 under setting [1], 0.88 under setting [2] and 0.44 under setting [3].

In the case of `NC(=O)c1ccc(I)c([N+](=O)[O-])c1` [Iniparib (BSl-201)], under setting [4], the “Average LMP1 Fold Increase” value is reported as 0.63. For the same compound, under setting [5], the “Replicate 1-LMP1 Fold Increase” value was 0.51 and the “Replicate 2-LMP1 Fold Increase” value was found to be 0.76.

For the compound `CCc1c2c(nc3ccc(OC(=O)N4CCC(N5CCCCC5)CC4)cc13)-c1cc3c(c(=O)n1C2)COC(=O)[C@]3(O)CC` [Irinotecan], the “Average LMP1 Fold Increase” value under setting [4] is given as 0.59.

`CC1=C(/C=C/C(C)=C/C=C/C(C)=C\C(=O)O)C(C)(C)CCC1` [Isotretinoin]: the fold induction at 2.5 µM amounted to 1.76 under setting [1], 1.42 under setting [2] and 2.1 under setting [3].

As for `Cc1ccc(C(=O)N(CCCN)[C@@H](c2nc3cc(Cl)ccc3c(=O)n2Cc2ccccc2)C(C)C)cc1` [Ispinesib (SB-715992)], the “Average LMP1 Fold Increase” value under setting [4] was determined as 1.57. Under setting [5], the “Replicate 1-LMP1 Fold Increase” value is 2.72 and the “Replicate 2-LMP1 Fold Increase” value was found to be 0.43.

Take `CCn1c(=O)c2c(nc(/C=C/c3ccc(OC)c(OC)c3)n2C)n(CC)c1=O` [Istradefylline]: the fold induction at 2.5 µM runs as follows: under setting [1], 0.7; under setting [2], 0.35; under setting [3], 1.06.

Regarding `CC(C)(C)c1cc(C(C)(C)C)c(NC(=O)c2c[nH]c3ccccc3c2=O)cc1O` [Ivacaftor (VX-770)], under setting [4], the “Average LMP1 Fold Increase” value was found to be 1.35. Besides, under setting [5], the “Replicate 1-LMP1 Fold Increase” value is recorded as 2.22 and the “Replicate 2-LMP1 Fold Increase” value was 0.49.

Regarding `O=C(Nc1ccccc1)N1CCN(c2nc(-c3ccccc3)ns2)CC1` [JNJ-1661010], the “Average LMP1 Fold Increase” value under setting [4] amounted to 0.51. Also, under setting [5], the “Replicate 1-LMP1 Fold Increase” value amounted to 0.31 and the “Replicate 2-LMP1 Fold Increase” value amounted to 0.70.

As for `Cc1ccc(NCCCc2ccccc2)c(N)c1` [JSH-23], the “Average LMP1 Fold Increase” value under setting [4] was found to be 0.77. Moreover, under setting [5], the “Replicate 1-LMP1 Fold Increase” value worked out at 0.86 and the “Replicate 2-LMP1 Fold Increase” value was 0.69.

`COc1cc(-c2ncn(/C=C\C(=O)OC(C)C)n2)cc(C(F)(F)F)c1` [KPT-185]: under setting [4], the “Average LMP1 Fold Increase” value came out at 0.68. For the same compound, under setting [5], the “Replicate 1-LMP1 Fold Increase” value is 0.56 and the “Replicate 2-LMP1 Fold Increase” value is on record as 0.80.

For `O=C(/C=C\n1cnc(-c2cc(C(F)(F)F)cc(C(F)(F)F)c2)n1)N1CC(F)(F)C1` [KPT-276], the “Average LMP1 Fold Increase” value under setting [4] is listed as 1.94. For the same compound, under setting [5], the “Replicate 1-LMP1 Fold Increase” value came out at 0.97 and the “Replicate 2-LMP1 Fold Increase” value is given as 2.91.

On to `O=C(/C=C\n1cnc(-c2cc(C(F)(F)F)cc(C(F)(F)F)c2)n1)NNc1cnccn1` [KPT-330], for which, under setting [4], the “Average LMP1 Fold Increase” value amounted to 0.35. Also, under setting [5], the “Replicate 1-LMP1 Fold Increase” value is 0.28 and the “Replicate 2-LMP1 Fold Increase” value came to 0.42.

Consider `O=c1cc(-c2cccc3c2Sc2ccccc2S3)oc(N2CCOCC2)c1` [KU-55933 (ATM Kinase Inhibitor)], for which the “Average LMP1 Fold Increase” value under setting [4] was 0.78. For the same compound, under setting [5], the “Replicate 1-LMP1 Fold Increase” value amounted to 0.60 and the “Replicate 2-LMP1 Fold Increase” value is listed as 0.95.

Take `C[C@@H]1CN(CC(=O)Nc2ccc3c(c2)Cc2cccc(-c4cc(=O)cc(N5CCOCC5)o4)c2S3)C[C@H](C)O1` [KU-60019]: the fold induction at 2.5 µM came out at 0.51 under setting [1], 0.49 under setting [2] and 0.53 under setting [3].

For the compound `COC(=O)CCSCc1ccc(-c2onc(C)c2NC(=O)OC(C)c2ccccc2Cl)cc1` (stereo not shown) [Ki16198], the “Average LMP1 Fold Increase” value under setting [4] is recorded as 1.33. Moreover, under setting [5], the “Replicate 1-LMP1 Fold Increase” value turned out to be 1.53 and the “Replicate 2-LMP1 Fold Increase” value amounted to 1.12.

Turning to `Cc1noc(-c2ccc(CSCCC(=O)O)cc2)c1NC(=O)OC(C)c1ccccc1Cl` (stereo not shown) [Ki16425], the “Average LMP1 Fold Increase” value under setting [4] turned out to be 0.62. For the same compound, under setting [5], the “Replicate 1-LMP1 Fold Increase” value is 0.80 and the “Replicate 2-LMP1 Fold Increase” value was found to be 0.45.

`O=C(c1cn(Cc2cncn2Cc2ccc(Br)cc2)cc1-c1cccc2ccccc12)N1CCOCC1` [LB42708]: the “Average LMP1 Fold Increase” value under setting [4] was 0.31. In addition, under setting [5], the “Replicate 1-LMP1 Fold Increase” value amounted to 0.46 and the “Replicate 2-LMP1 Fold Increase” value amounted to 0.16.

With `Cc1c(C(=O)Nc2ccc(N3C[C@@H](C)O[C@@H](C)C3)nc2)cccc1-c1ccc(OC(F)(F)F)cc1` [LDE225 (NVP-LDE225, Erismodegib)], under setting [4], the “Average LMP1 Fold Increase” value is given as 0.39. Besides, under setting [5], the “Replicate 1-LMP1 Fold Increase” value is on record as 0.50 and the “Replicate 2-LMP1 Fold Increase” value is 0.29.

Consider `Cc1cc(Nc2ncc(Cl)c(Nc3ccccc3S(=O)(=O)C(C)C)n2)c(OC(C)C)cc1C1CCNCC1` [LDK378], for which the fold induction at 2.5 µM amounted to 0.67 under setting [1], 0.85 under setting [2] and 0.49 under setting [3].

For `c1cc(-c2cnn3cc(-c4ccc(N5CCNCC5)cc4)cnc23)c2cccnc2c1` [LDN-212854], the “Average LMP1 Fold Increase” value under setting [4] was 0.62. Under setting [5], the “Replicate 1-LMP1 Fold Increase” value was found to be 0.96 and the “Replicate 2-LMP1 Fold Increase” value came to 0.27.

Regarding `C[C@H](NC(=O)[C@@H](O)c1cc(F)cc(F)c1)C(=O)N[C@@H]1C(=O)N(C)c2ccccc2-c2ccccc21` [LY411575], under setting [4], the “Average LMP1 Fold Increase” value is recorded as 0.36. Moreover, under setting [5], the “Replicate 1-LMP1 Fold Increase” value is on record as 0.41 and the “Replicate 2-LMP1 Fold Increase” value was 0.31.

As for `Cc1cccc(-c2nn3c(c2-c2ccnc4ccc(C(N)=O)cc24)CCC3)n1` [LY2157299], the “Average LMP1 Fold Increase” value under setting [4] is listed as 0.30. For the same compound, under setting [5], the “Replicate 1-LMP1 Fold Increase” value is 0.30 and the “Replicate 2-LMP1 Fold Increase” value is 0.30.

With `CC(C)(C)Cn1c(N)nc2ccc(-c3[nH]c(C(C)(C)C)nc3-c3ccc(F)cc3)nc21` [LY2228820], under setting [4], the “Average LMP1 Fold Increase” value stood at 0.60. Under setting [5], the “Replicate 1-LMP1 Fold Increase” value was 0.63 and the “Replicate 2-LMP1 Fold Increase” value is 0.56.

With `Cc1cnc(NC(=O)Nc2cc(Br)c(C)cc2OC[C@@H]2CNCCO2)cn1` [LY2603618], the “Average LMP1 Fold Increase” value under setting [4] came to 1.21. Under setting [5], the “Replicate 1-LMP1 Fold Increase” value was determined as 0.94 and the “Replicate 2-LMP1 Fold Increase” value was 1.47.

As for `Cc1cc(Nc2cc(CN3CCOCC3)c3nc(C)c(Cc4ccc(Cl)cc4F)n3n2)n[nH]1` [LY2784544], under setting [4], the “Average LMP1 Fold Increase” value worked out at 0.94. Under setting [5], the “Replicate 1-LMP1 Fold Increase” value was 1.24 and the “Replicate 2-LMP1 Fold Increase” value is 0.65.

The values above are taken from patent publication US20230053688A1, “METHODS TO ALTER LATENCY IN EBV+ MALIGNANCIES” (Cornell University, priority 2020, published 2023).
